Values after ≈ are worked out from the molar mass of the structure shown. Values joined by “and” are separate entries in the source; they are usually repeats but may differ in a detail not shown here. Equal values may be shown once. “Also recorded” adds a separate entry of the source. Read-outs that look alike come from different tables or passages of the source.
Tests used:
[1] = target: CYP2D6 (Homo sapiens, UniProt P10635); assay: biochemical
[2] = in vitro; details: mouse, hepatocytes, pH 7.4
[3] = in vitro; details: human, hepatocytes, pH 7.4
[4] = test system: SARS-CoV-2 P21; parameters: species or system C57BL/6 (WT) mice; details: mouse, in vivo
[5] = target: T1, CYP1A2 (Homo sapiens, UniProt P05177); assay: biochemical
[6] = test system: SARS-CoV-2 P2 strain; parameters: species or system C57BL/6 (WT) mice; details: mouse, in vivo
[7] = in vitro; details: both, CD1, mouse, plasma, pH 7.4
[8] = in vitro; details: both, human, plasma, pH 7.4
[9] = physchem; details: kinetic from dmso stock
[10] = target: T2, SARS-CoV-2 PLpro (Severe acute respiratory syndrome coronavirus 2, UniProt P0DTD1); assay: biochemical
[11] = target: T3, CYP2C8 (Homo sapiens, UniProt P10632); details: 20 µM
[12] = target: T4, CYP2C9 (Homo sapiens, UniProt P11712); assay: in vitro; details: microsomes, pH 7.4
[13] = target: hERG (Homo sapiens, UniProt Q12809); assay: biochemical
[14] = in vivo; details: male, C57BL/6, mouse, po, 100 mg/kg
[15] = target: T4, CYP2C9; assay: biochemical
[16] = target: T5, CYP2B6 (Homo sapiens, UniProt P20813)
[17] = test system: CYP3A4/5; assay: in vitro; details: human, microsomes
[18] = target: T2, SARS-CoV-2 PLpro; assay: cell-based; type: cell-based
[19] = target: T1, CYP1A2
[20] = target: T6, CYP2C19 (Homo sapiens, UniProt P33261)
[21] = in vitro; details: human, microsomes, pH 7.4
[22] = test system: SARS-CoV-2 clinical isolate VIC001; assay: microbe, parasite or virus in culture; type: cell-based
[23] = test system: SARS-CoV-2 P21; parameters: species or system C57BL/6 (WT) mice; Macrophages: unit not given here; details: mouse, in vivo
[24] = target: T5, CYP2B6; assay: biochemical
[25] = test system: SARS-CoV-2 P21; parameters: species or system C57BL/6 (WT) mice; details: mouse, in vivo; remark: listed apart in the source
[26] = physchem; details: pH 7.4
[27] = test system: CYP3A4/5; assay: in vitro; details: human, microsomes; remark: listed apart in the source
[28] = target: T6, CYP2C19; assay: biochemical
[29] = in vitro; details: mouse, microsomes, pH 7.4
[30] = target: T3, CYP2C8; assay: biochemical
[31] = target: T2, SARS-CoV-2 PLpro; assay: biochemical; type: binding
[32] = test system: SARS-CoV-2 clinical isolate VIC001; type: cell-based

T5 sequence (P20813 whole entry): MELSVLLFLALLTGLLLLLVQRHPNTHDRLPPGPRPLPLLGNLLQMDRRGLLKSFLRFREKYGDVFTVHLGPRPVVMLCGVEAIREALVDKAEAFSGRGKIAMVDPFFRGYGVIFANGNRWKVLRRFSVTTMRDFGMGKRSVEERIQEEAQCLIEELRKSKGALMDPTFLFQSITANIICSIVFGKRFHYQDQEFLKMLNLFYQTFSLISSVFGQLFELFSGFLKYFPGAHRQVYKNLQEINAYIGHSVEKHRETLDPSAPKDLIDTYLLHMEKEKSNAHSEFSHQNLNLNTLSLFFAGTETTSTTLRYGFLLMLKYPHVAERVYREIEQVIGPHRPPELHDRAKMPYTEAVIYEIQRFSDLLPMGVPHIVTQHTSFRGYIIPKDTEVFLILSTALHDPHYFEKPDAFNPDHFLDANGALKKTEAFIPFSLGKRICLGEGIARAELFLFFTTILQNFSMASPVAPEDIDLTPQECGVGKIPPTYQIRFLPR
T4 sequence (P11712 whole entry): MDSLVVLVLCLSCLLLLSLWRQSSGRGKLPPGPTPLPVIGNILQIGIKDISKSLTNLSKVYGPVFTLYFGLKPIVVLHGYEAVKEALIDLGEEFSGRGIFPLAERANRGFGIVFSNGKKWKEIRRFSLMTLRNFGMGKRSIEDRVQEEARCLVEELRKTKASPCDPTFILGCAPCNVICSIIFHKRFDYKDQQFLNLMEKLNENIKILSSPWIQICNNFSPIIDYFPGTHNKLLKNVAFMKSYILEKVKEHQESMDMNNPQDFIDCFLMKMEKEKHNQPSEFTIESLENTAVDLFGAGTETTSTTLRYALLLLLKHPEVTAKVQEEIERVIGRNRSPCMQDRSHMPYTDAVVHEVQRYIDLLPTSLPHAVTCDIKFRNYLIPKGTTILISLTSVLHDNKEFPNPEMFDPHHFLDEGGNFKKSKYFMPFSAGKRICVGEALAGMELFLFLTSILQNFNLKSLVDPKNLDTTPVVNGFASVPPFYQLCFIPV
T6 sequence (P33261 whole entry): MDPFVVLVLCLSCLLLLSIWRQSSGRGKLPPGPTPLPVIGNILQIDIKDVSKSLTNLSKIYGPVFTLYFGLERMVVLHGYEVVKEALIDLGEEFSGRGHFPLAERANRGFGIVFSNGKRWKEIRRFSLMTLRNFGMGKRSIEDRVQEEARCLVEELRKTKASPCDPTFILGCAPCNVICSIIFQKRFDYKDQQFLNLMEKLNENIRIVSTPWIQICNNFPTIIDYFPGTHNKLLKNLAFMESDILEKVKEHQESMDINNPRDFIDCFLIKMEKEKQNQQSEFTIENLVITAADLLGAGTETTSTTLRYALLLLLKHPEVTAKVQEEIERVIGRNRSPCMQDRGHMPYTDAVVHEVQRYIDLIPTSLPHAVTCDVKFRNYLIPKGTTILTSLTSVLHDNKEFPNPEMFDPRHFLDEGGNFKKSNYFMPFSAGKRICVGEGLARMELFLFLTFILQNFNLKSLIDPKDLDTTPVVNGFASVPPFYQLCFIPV
T3 sequence (P10632 whole entry): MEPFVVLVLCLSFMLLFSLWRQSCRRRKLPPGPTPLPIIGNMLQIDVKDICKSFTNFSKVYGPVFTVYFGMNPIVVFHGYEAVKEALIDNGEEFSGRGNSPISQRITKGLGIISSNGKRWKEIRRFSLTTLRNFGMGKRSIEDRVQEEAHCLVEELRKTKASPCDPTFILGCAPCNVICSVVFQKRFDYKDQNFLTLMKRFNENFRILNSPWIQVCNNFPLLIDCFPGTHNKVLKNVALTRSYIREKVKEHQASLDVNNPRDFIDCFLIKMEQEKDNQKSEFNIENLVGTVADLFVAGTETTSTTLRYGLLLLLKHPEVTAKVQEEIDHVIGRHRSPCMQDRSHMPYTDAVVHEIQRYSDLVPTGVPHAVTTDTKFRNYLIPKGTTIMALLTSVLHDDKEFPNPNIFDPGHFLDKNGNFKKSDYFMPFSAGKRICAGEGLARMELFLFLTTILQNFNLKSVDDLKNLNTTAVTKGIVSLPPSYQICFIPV
T1 sequence (P05177 whole entry): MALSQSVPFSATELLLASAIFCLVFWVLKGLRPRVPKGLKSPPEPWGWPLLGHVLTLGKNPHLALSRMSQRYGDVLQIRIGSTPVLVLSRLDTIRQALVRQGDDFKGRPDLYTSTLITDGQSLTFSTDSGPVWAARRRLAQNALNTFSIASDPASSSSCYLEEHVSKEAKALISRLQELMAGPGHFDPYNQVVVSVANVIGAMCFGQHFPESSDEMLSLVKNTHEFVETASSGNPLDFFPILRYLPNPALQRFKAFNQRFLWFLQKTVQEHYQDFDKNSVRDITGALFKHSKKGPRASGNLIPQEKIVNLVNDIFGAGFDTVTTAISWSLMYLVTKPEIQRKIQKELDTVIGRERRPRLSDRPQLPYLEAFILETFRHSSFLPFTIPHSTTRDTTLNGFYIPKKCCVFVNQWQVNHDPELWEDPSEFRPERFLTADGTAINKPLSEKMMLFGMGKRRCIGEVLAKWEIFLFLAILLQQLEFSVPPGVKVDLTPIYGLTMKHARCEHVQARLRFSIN
Sequence of CYP2D6 (P10635 whole entry): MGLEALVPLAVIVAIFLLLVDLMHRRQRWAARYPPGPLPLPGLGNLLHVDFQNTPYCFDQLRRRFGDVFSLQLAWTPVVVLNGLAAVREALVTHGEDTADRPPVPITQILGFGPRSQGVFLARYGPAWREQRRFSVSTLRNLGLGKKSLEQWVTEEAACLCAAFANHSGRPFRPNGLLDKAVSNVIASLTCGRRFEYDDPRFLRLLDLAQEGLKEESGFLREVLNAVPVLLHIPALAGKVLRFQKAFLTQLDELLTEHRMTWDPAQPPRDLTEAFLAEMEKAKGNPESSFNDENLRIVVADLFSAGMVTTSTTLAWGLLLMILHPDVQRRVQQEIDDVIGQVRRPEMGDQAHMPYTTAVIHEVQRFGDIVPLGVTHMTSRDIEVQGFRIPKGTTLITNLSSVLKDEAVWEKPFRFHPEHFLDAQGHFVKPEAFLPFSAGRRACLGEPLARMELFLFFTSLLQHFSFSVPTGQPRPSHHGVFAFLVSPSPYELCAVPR
Sequence of hERG (Q12809 whole entry): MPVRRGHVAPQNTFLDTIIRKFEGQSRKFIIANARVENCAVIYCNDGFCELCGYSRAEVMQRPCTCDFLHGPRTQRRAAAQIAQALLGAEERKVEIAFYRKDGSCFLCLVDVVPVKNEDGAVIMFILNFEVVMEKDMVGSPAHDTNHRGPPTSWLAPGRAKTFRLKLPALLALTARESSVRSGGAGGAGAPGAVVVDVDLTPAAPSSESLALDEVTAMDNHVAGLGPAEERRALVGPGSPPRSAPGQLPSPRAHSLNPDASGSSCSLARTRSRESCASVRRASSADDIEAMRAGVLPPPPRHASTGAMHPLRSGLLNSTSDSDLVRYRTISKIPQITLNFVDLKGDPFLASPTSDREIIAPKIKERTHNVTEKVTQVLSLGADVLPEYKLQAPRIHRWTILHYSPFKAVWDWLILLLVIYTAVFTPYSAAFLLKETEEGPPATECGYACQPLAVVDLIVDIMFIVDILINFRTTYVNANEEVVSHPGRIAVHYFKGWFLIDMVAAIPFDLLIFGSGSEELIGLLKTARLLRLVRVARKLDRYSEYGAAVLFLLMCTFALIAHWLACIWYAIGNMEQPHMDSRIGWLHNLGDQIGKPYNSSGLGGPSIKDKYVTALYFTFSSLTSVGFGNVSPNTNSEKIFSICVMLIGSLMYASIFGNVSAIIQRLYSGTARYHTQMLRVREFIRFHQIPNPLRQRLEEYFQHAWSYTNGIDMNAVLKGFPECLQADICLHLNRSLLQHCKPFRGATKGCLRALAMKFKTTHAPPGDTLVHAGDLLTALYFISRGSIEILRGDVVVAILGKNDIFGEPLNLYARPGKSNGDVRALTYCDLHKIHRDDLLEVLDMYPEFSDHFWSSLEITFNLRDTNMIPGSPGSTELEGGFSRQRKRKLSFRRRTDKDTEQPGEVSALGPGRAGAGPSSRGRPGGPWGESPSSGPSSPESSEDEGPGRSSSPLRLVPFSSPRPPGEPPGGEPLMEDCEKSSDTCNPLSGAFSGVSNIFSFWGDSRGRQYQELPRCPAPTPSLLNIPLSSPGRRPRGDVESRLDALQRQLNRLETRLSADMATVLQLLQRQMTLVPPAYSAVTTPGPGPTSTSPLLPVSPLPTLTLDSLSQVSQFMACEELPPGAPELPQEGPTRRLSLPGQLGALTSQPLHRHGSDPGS

Compound `CCON=C(c1ccc2cc(OC)ccc2c1)C1CCCN(C2CCC(O)CC2)C1` (stereo not drawn) [WEHI-P8] has an IC50 [1] of 13800 nM, a half-life [2] of 1.38 h and a hepatocyte CLint [2] of 16.8 µL/min/1e6 cells. The half-life [3] was 2.32 h, the hepatocyte CLint [3] was 10 µL/min/1e6 cells and the “NORT exploratory behaviour / preference for the novel object” value [4] was “significantly higher preference for the novel object”. The “NORT impairment in females” value [4] was “partially mitigated”, the “overall distance travelled, infected females” value [4] was “rescued by WEHI-P8 treatment” and the “recognition index” value [4] was “did not reveal significant sex- or drug dependent differences”. For the same compound, the “Recognition Index (females)” value ([4]; 150 mg/kg) was 0.5 and 0.9 and 0.57 and 0.7, the “Recognition Index (males)” value ([4]; 150 mg/kg) was 0.8 and 0.529 and 0.7 and the IC50 [5] was > 20000 nM. The “antiviral activity (lung viral burden), mild model” value [6] was “antiviral efficacy in inhibiting P2 virus replication, comparable to that observed with WEHI-P8; also recorded: cannot be further enhanced by concurrent ritonavir co-treatment”, the “antiviral efficacy (lung viral burden), mild model, treatment after infection” value ([6]; 150 mg/kg) was “did not change the antiviral efficacy” and the fraction unbound [7] was 0.062. For the same compound, the fraction unbound [8] was 0.153, the solubility kinetic ([9]; pH 2, aqueous buffer) was > 320 µM and the solubility kinetic ([9]; pH 6.5, aqueous buffer) was 160 to 320 µM (≈ 65.7 to 131 µg/mL). It also gave an inhibition at 0.545 µM ([10]; Conc 0.545 µM, read-out: SARS-CoV-2 PLpro, UbRh dose-response) of 96.1%, an inhibition at 1.63 µM ([10]; Conc 1.63 µM, read-out: SARS-CoV-2 PLpro, UbRh dose-response) of 97.9% and an inhibition at 4.9 µM ([10]; Conc 4.9 µM, read-out: SARS-CoV-2 PLpro, UbRh dose-response) of 100%. For the same compound, the IC50 ([10]; IC50 (UbRh) SARS-CoV-2 PLpro) was 12 nM, the inhibition at […] ([10]; read-out: SARS-CoV-2 PLpro, UbRh dose-response) was 95.1% and 83.6% and the “CYP2C8 % inhibition at 20 µM” value [11] was “No measurable inhibition”. It also gave an inhibition at 20 µM [12] of 26%, an IC50 [13] of 5390 nM and an AUC(0-inf) [14] of ~108 µM·h. It also gave an AUC(0-t) [14] of 72.3 µM·h, a Cmax [14] of 7.07 µM and a Tmax [14] of 1 h. For the same compound, the half-life ([14]; Apparent t1/2) was 14 h, the IC50 [15] was > 20000 nM and the “CYP2B6 % inhibition at 20 µM” value [16] was “No measurable inhibition”. The inhibition at 20 µM ([17]; Time dependent CYP3A4/5 % inhibition at 20 µM) was 25%, the IC50 ([17]; Time dependent CYP3A4/5 IC50 + NADPH) was > 20000 nM and the IC50 ([17]; Time dependent CYP3A4/5 IC50 - NADPH) was > 20000 nM. The EC50 [18] was 298 nM, the “CYP1A2 % inhibition at 20 µM” value [19] was “No measurable inhibition” and the “CYP2C19 % inhibition at 20 µM” value [20] was “No measurable inhibition”. For the same compound, the half-life [21] was 2.4 h, the microsomal CLint [21] was 9.7 µL/min/mg and the “Ext Data Fig 6e dose response, normalised (0 µM = 100)” value ([22]; 0.01 µM) was 105.19 and 94.34 and 104.76 and 91.8 and 114.493 and 94.2029. For the same compound, the “Ext Data Fig 6e dose response, normalised (0 µM = 100)” value ([22]; 0.02 µM) was 94.81 and 103.77 and 95.24 and 103.28 and 113.043 and 95.6522, the “Ext Data Fig 6e dose response, normalised (0 µM = 100)” value ([22]; 0.04 µM) was 90.91 and 75.47 and 93.65 and 80.33 and 105.797 and 88.4058 and the “Ext Data Fig 6e dose response, normalised (0 µM = 100)” value ([22]; 0.08 µM) was 79.22 and 86.79 and 63.49 and 63.93 and 86.9565 and 85.5072. For the same compound, the “Ext Data Fig 6e dose response, normalised (0 µM = 100)” value ([22]; 5 µM) was 0, the EC50 ([22]; Severe acute respiratory syndrome coronavirus 2, Vero, 144 h, read-out: EC50 Replicate 1) was 465 nM and the EC50 ([22]; Severe acute respiratory syndrome coronavirus 2, Vero, 144 h, read-out: EC50 Replicate 2) was 333 nM. It also gave an EC50 ([22]; Severe acute respiratory syndrome coronavirus 2, Vero, 144 h, read-out: EC50 Replicate 3) of 273 nM, an EC50 ([22]; Severe acute respiratory syndrome coronavirus 2, Vero, read-out: Antiviral EC50 (plaque assay)) of 360 nM and an EC50 ([22]; Severe acute respiratory syndrome coronavirus 2, Vero, read-out: Antiviral EC50 (plaque assay) with Pgp inhibitor) of 290 nM. The EC50 ([22]; read-out: EC50 Replicate 1) was 376 nM, the EC50 ([22]; read-out: EC50 Replicate 2) was 237 nM and the EC50 ([22]; read-out: EC50 Replicate 3) was 253 nM. For the same compound, the “Log2 Fold change IL-10” value [23] was -6.27, the Macrophages [23] was 10.22 and 12.4 and 14.7 and 14.8 and 13 and 14.2 and 15.1 and 11.5 and the “reduction of viral burdens, severe model” value [23] was “more effective than PLT at reducing viral burdens”. For the same compound, the “weight loss, severe model” value [23] was “rescuing mice from weight loss”, the “lung H&E histology, severe model” value ([23]; 100 mg/kg) was “only mild inflammation” and the “lung IHC immune cell subsets, severe model” value ([23]; 100 mg/kg) was “significantly reduce the numbers of macrophages and neutrophils”. The “lung cytokine and chemokine profiling, severe model” value ([23]; 100 mg/kg) was “significantly reduce the levels of a wider range of pro-inflammatory cytokines and chemokines”, the “efficacy of pre-infection regimen versus treatment after infection” value ([23]; 150 mg/kg) was “no more effective than initiating treatment after infection; also recorded: did not confer a significant benefit compared to post-infection treatment initiation” and the “lung H&E histology, severe model” value ([23]; 150 mg/kg) was “minimal to unremarkable histological changes”. For the same compound, the “lung IHC immune cell subsets, severe model” value ([23]; 150 mg/kg) was “also reduced the number of T cells”, the IC50 [24] was > 20000 nM and the “gut inflammation” value [25] was “could not be rescued”. The “lung H&E pathology at 1 month, PASC model” value [25] was “reduced signs of haemorrhage and immune cell infiltrates”, the “neuroinflammation, microglial activation (IBA-1)” value [25] was “significantly reduced” and the “right ventricle area” value [25] was “no significant differences between vehicle-treated or antiviral-treated groups”. The “infection-induced weight loss, PASC model” value ([25]; 150 mg/kg) was “effectively prevented infection-induced weight loss”, the “survival of acute phase, PASC model” value ([25]; 150 mg/kg) was “all treated animals survived the acute phase of infection” and the chromatographic logD [26] was 3.8. For the same compound, the inhibition at 20 µM ([27]; pH 7.4, CYP3A4/5 % inhibition at 20 µM) was 28%, the IC50 ([27]; pH 7.4, CYP3A4/5 IC50) was > 20000 nM and the IC50 [28] was > 20000 nM. The half-life [29] was 0.692 h, the microsomal CLint [29] was 33.4 µL/min/mg and the IC50 [30] was > 20000 nM. The Kd [31] was 9 nM and the “Response (RU), report points” value [31] was 23.2517 RU and 23.7185 RU and 25.1250 RU and 25.7597 RU and 25.8254 RU and 25.1414 RU.
Work on `CCC(CC)COC(=O)[C@H](C)N[P@](=O)(OC[C@H]1O[C@@](C#N)(c2ccc3c(N)ncnn23)[C@H](O)[C@@H]1O)Oc1ccccc1` [Remdesivir, remdesivir] yielded a TCID50 [32] of 15.3.
